Source: patent US10039283B2, “Substituted pyrazolyl-nicotin(thio)amide derivatives and their use as fungicides” (BAYER CROPSCIENCE AKTIENGESELLSCHAFT, priority 2014, dated 2018)

Assay: Log P by HPLC on reversed phase, method [a], acidic range (0.1% formic acid)
Format: physicochemical
Settings: LC-UV, 0.1% formic acid in water and acetonitrile; for chromatographic logP: reversed phase HPLC column

SMILES | chromatographic logP | LogP
O=C(Nc1cnn(-c2ccccc2)c1C(F)(F)F)c1ccc(Cl)nc1C(F)F [Example 1, 6-chloro-2-(difluoromethyl)-N-[1-phenyl-5-(trifluoromethyl)-1H-pyrazol-4-yl]nicotinamide] | 2.8 | 
Cc1c(NC(=O)c2cccnc2C(F)F)cnn1CCC(C)C [Example 2] |  | 2.01^[a]
CC(C)c1cccc(-n2ncc(NC(=O)c3cccnc3C(F)F)c2C(F)(F)F)c1 [Example 3] |  | 3.51^[a]
Cc1cnc(C(F)F)c(C(=O)Nc2cnn(-c3ccccc3)c2C(F)(F)F)c1 [Example 4] |  | 2.44^[a]
Cc1c(NC(=O)c2cccnc2C(F)F)cnn1-c1cccc(Cl)c1 [Example 5] |  | 2.25^[a]
Cc1c(NC(=O)c2cccnc2C(F)F)cnn1C(C)(C)C [Example 6] |  | 1.63^[a]
CCCCn1ncc(NC(=O)c2cccnc2C(F)F)c1C [Example 7] |  | 1.69^[a]
CCC(CC)n1ncc(NC(=O)c2cccnc2C(F)F)c1C [Example 8] |  | 1.89^[a]
O=C(Nc1cnn(-c2ccccc2)c1C(F)(F)F)c1cccnc1C(F)F [Example 9] |  | 2.53^[a]
O=C(Nc1cnn(-c2ccc(Cl)cc2)c1C(F)(F)F)c1cccnc1C(F)F [Example 10] |  | 3.02^[a]
Cc1c(NC(=O)c2cccnc2C(F)F)cnn1C1CCCC1 [Example 11] |  | 1.83^[a]
Cc1c(NC(=O)c2cccnc2C(F)F)cnn1-c1ccccc1 [Example 12] |  | 1.78^[a]
Cc1ccc(C)c(-n2ncc(NC(=O)c3cccnc3C(F)F)c2C)c1 [Example 13] |  | 2.25^[a]
CC(C)n1ncc(NC(=O)c2cccnc2C(F)F)c1C1CC1 [Example 14] |  | 1.68^[a]
Cc1nn(-c2cccc(F)c2)c(C)c1NC(=O)c1cccnc1C(F)F [Example 15] |  | 1.99^[a]
Cc1nn(-c2cccc(F)c2)c(C)c1NC(=O)c1cccnc1C(F)(F)F [Example 16] |  | 2.27^[a]
Cc1nn(-c2ccccc2)c(C)c1NC(=O)c1cccnc1C(F)F [Example 17] |  | 1.81^[a]
Cc1nn(-c2ccccc2)c(C)c1NC(=O)c1cccnc1C(F)(F)F [Example 18] |  | 2.07^[a]
O=C(Nc1cnn(-c2ccc(Cl)cc2)c1C(F)F)c1cccnc1C(F)F [Example 23] |  | 2.69^[a]
O=C(Nc1cnn(-c2cccc(Cl)c2)c1C(F)F)c1cccnc1C(F)F [Example 24] |  | 2.69^[a]
O=C(Nc1cnn(-c2cccc(F)c2)c1C(F)F)c1cccnc1C(F)F [Example 25] |  | 2.37^[a]

SMILES | chromatographic logP | LogP
O=C(Nc1cnn(-c2cccc(C(F)F)c2)c1C(F)F)c1cccnc1C(F)F [Example 26] |  | 2.48^[a]
Cc1ccccc1-n1ncc(NC(=O)c2cccnc2C(F)F)c1C(F)F [Example 27] |  | 2.37^[a]
O=C(Nc1cnn(-c2ccc(Br)cc2)c1C(F)F)c1cccnc1C(F)F [Example 28] |  | 2.80^[a]
O=C(Nc1cnn(-c2cc(F)cc(F)c2)c1C(F)F)c1cccnc1C(F)F [Example 29] |  | 2.62^[a]
O=C(Nc1cnn(-c2cccc(C(F)(F)F)c2)c1C(F)F)c1cccnc1C(F)F [Example 30] |  | 2.88^[a]
O=C(Nc1cnn(-c2ccccc2C(F)(F)F)c1C(F)F)c1cccnc1C(F)F [Example 31] |  | 2.51^[a]
O=C(Nc1cnn(-c2ccc(F)cc2)c1C(F)F)c1cccnc1C(F)F [Example 32] |  | 2.20^[a]
O=C(Nc1cnn(-c2ccccc2F)c1C(F)F)c1cccnc1C(F)F [Example 33] |  | 2.32^[a]
FC(F)c1cccc(-n2ncc(NC(=S)c3cccnc3C(F)F)c2C(F)F)c1 [Example 34, 2-(difluoromethyl)-N-{5-(difluoromethyl)-1-[3-(difluoromethyl)phenyl]-1H-pyrazol-4-yl}pyridine-3-carbothioamide] | 2.9 | 
Cc1nn(-c2ccccc2)c(Br)c1NC(=O)c1cccnc1C(F)F [Example 35] |  | 2.07^[a]
Cc1cnc(C(F)F)c(C(=O)Nc2cnn(C(C)(C)C)c2C)c1 [Example 36] |  | 1.90^[a]
Cc1c(NC(=O)c2ccc(Cl)nc2C(F)F)cnn1C(C)(C)C [Example 37] |  | 2.25^[a]
CCC(CC)n1ncc(NC(=O)c2cc(C)cnc2C(F)F)c1C [Example 38] |  | 2.12^[a]
CCC(CC)n1ncc(NC(=O)c2ccc(Cl)nc2C(F)F)c1C [Example 39] |  | 2.51^[a]
Cc1cnc(C(F)F)c(C(=O)Nc2cnn(C3CCCC3)c2C)c1 [Example 40] |  | 2.09^[a]
Cc1c(NC(=O)c2ccc(Cl)nc2C(F)F)cnn1C1CCCC1 [Example 41] |  | 2.46^[a]
Cc1cnc(C(F)F)c(C(=O)Nc2cnn(C(C)C)c2C2CC2)c1 [Example 42] |  | 1.95^[a]
CC(C)n1ncc(NC(=O)c2ccc(Cl)nc2C(F)F)c1C1CC1 [Example 43] |  | 2.33^[a]
Cc1ccc(C)c(-n2ncc(NC(=O)c3ccc(Cl)nc3C(F)F)c2C)c1 [Example 45] |  | 2.88^[a]
Cc1c(NC(=O)c2cccnc2C(F)F)cnn1-c1ccc(Cl)cc1 [Example 46] |  | 2.25^[a]
Cc1c(NC(=O)c2cccnc2C(F)F)cnn1-c1ccccc1Cl [Example 47] |  | 1.94^[a]

SMILES | chromatographic logP | LogP
Cc1cccc(-n2ncc(NC(=O)c3cccnc3C(F)F)c2C)c1 [Example 48] |  | 2.11^[a]
O=C(Nc1cnn(-c2ccccc2C(F)(F)F)c1C(F)(F)F)c1cccnc1C(F)F [Example 49] |  | 2.82^[a]
O=C(Nc1cnn(-c2ccc(C(F)(F)F)cc2)c1C(F)(F)F)c1cccnc1C(F)F [Example 50] |  | 3.21^[a]
O=C(Nc1cnn(-c2cccc(C(F)(F)F)c2)c1-c1cccc(Cl)c1)c1cccnc1C(F)F [Example 53] |  | 3.48^[a]
O=C(Nc1cnn(-c2cccc(Cl)c2)c1-c1cccc(Cl)c1)c1cccnc1C(F)F [Example 54] |  | 3.31^[a]
O=C(Nc1cnn(-c2ccc(C(F)(F)F)cc2)c1-c1cccc(Cl)c1)c1cccnc1C(F)F [Example 55] |  | 3.58^[a]
O=C(Nc1cnn(-c2ccc(Cl)cc2)c1-c1cccc(Cl)c1)c1cccnc1C(F)F [Example 56] |  | 3.35^[a]
O=C(Nc1cnn(-c2ccccc2F)c1-c1cccc(Cl)c1)c1cccnc1C(F)F [Example 57] |  | 2.75^[a]
O=C(Nc1cnn(-c2cccc(F)c2)c1-c1cccc(Cl)c1)c1cccnc1C(F)F [Example 58] |  | 2.98^[a]
O=C(Nc1cnn(-c2cccc(Br)c2)c1C(F)(F)F)c1cccnc1C(F)F [Example 60] |  | 3.09^[a]
O=C(Nc1cnn(-c2cc(F)cc(F)c2)c1C(F)(F)F)c1cccnc1C(F)F [Example 61] |  | 2.88^[a]
O=C(Nc1cnn(-c2cccc(F)c2)c1C(F)(F)F)c1cccnc1C(F)F [Example 62] |  | 2.66^[a]
O=C(Nc1cnn(-c2ccc(Br)cc2)c1C(F)(F)F)c1cccnc1C(F)F [Example 63] |  | 3.13^[a]
O=C(Nc1cnn(-c2cccc(C(F)F)c2)c1C(F)(F)F)c1cccnc1C(F)F [Example 64] |  | 2.71^[a]
Cc1cnc(C(F)F)c(C(=O)Nc2cnn(-c3cccc(Cl)c3)c2C)c1 [Example 65] |  | 2.51^[a]
Cc1c(NC(=O)c2ccc(Cl)nc2C(F)F)cnn1-c1cccc(Cl)c1 [Example 66] |  | 2.88^[a]
Cc1cccc(-n2ncc(NC(=O)c3cc(C)cnc3C(F)F)c2C)c1 [Example 67] |  | 2.35^[a]
Cc1cccc(-n2ncc(NC(=O)c3ccc(Cl)nc3C(F)F)c2C)c1 [Example 68] |  | 2.73^[a]
Cc1cnc(C(F)F)c(C(=O)Nc2cnn(-c3ccccc3Cl)c2C)c1 [Example 69] |  | 2.17^[a]
Cc1c(NC(=O)c2ccc(Cl)nc2C(F)F)cnn1-c1ccccc1Cl [Example 70] |  | 2.56^[a]
Cc1cnc(C(F)F)c(C(=O)Nc2cnn(-c3ccc(Cl)cc3)c2C)c1 [Example 71] |  | 2.49^[a]

SMILES | chromatographic logP | LogP
Cc1c(NC(=O)c2ccc(Cl)nc2C(F)F)cnn1-c1ccc(Cl)cc1 [Example 72] |  | 2.86^[a]
Cc1ccccc1-n1ncc(NC(=O)c2cccnc2C(F)F)c1C(F)(F)F [Example 73] |  | 2.71^[a]
O=C(Nc1cnn(-c2ccccc2Br)c1C(F)(F)F)c1cccnc1C(F)F [Example 74] |  | 2.71^[a]
Cc1nn(-c2ccccc2)c(Cl)c1NC(=O)c1cccnc1C(F)F [Example 75] |  | 2.08^[a]
COc1c(NC(=O)c2cccnc2C(F)F)c(C)nn1-c1ccccc1 [Example 76] |  | 1.88^[a]
O=C(Nc1cnn(-c2ccccc2C(F)(F)F)c1-c1cccc(Cl)c1)c1cccnc1C(F)F [Example 78] |  | 3.06^[a]
O=C(Nc1cnn(-c2ccccc2Cl)c1-c1ccccc1)c1cccnc1C(F)F [Example 79] |  | 2.53^[a]
O=C(Nc1cnn(-c2ccccc2Cl)c1-c1ccc(Cl)cc1)c1cccnc1C(F)F [Example 80] |  | 2.90^[a]
O=C(Nc1cnn(-c2ccccc2Cl)c1-c1cccc(Cl)c1)c1cccnc1C(F)F [Example 81] |  | 2.88^[a]
O=C(Nc1cnn(-c2ccccc2Cl)c1-c1cccc(F)c1)c1cccnc1C(F)F [Example 82] |  | 2.66^[a]
O=C(Nc1cnn(-c2ccccc2Cl)c1-c1ccc(F)cc1)c1cccnc1C(F)F [Example 83] |  | 2.66^[a]
O=C(Nc1cnn(-c2cccc(Cl)c2)c1C(F)(F)F)c1cccnc1C(F)F [Example 84] |  | 3.00^[a]
O=C(Nc1cnn(-c2cccc(C(F)(F)F)c2)c1C(F)(F)F)c1cccnc1C(F)F [Example 85] |  | 3.19^[a]
Cc1cccc(-n2ncc(NC(=O)c3cccnc3C(F)F)c2C(F)(F)F)c1 [Example 86] |  | 2.73^[a]
Cc1ccc(-n2ncc(NC(=O)c3cccnc3C(F)F)c2C(F)(F)F)cc1 [Example 87] |  | 2.86^[a]
O=C(Nc1cnn(-c2ccccc2F)c1C(F)(F)F)c1cccnc1C(F)F [Example 88] |  | 2.55^[a]
O=C(Nc1cnn(-c2ccc(F)cc2)c1C(F)(F)F)c1cccnc1C(F)F [Example 89] |  | 2.64^[a]
CC(C)c1ccc(-n2ncc(NC(=O)c3cccnc3C(F)F)c2C(F)(F)F)cc1 [Example 90] |  | 3.55^[a]
O=C(Nc1cnn(-c2c(Cl)cccc2Cl)c1C(F)(F)F)c1cccnc1C(F)F [Example 91] |  | 2.94^[a]
